Assay results taken from ChEMBL document CHEMBL1129224, “Rapid decomposition of peroxynitrite by manganese porphyrin-antioxidant redox couples” (Bioorg Med Chem Lett, 1997).

What was measured:
Type in all cases: ADME
[1] = The compound was evaluated for the apparent first-order rate of reaction of ONOO- with antioxidant
[2] = The compound was evaluated for the rate of oxoMn (IV) reduction
[3] = The compound was evaluated for the apparent first-order rate of reaction of ONOO- with antioxidant in presence of catalyst

kONOO- [1] [M⁻¹ s⁻¹] | kred [2] [M⁻¹ s⁻¹] | k cat [3] [M⁻¹ s⁻¹] | SMILES
88 | 54000000 | 2200000 | O=C1O[C@H]([C@@H](O)CO)C(O)=C1O [ASCORBIC ACID]
580 | 130000 | 3200000 | N[C@@H](CCC(=O)N[C@@H](CS)C(=O)NCC(=O)O)C(=O)O [GLUTATHIONE]
33 | 7000000 | 1100000 | Cc1c(C)c2c(c(C)c1O)CCC(C)(C(=O)O)O2 (centres undefined) [TROLOX]
